Test results taken from US6242442A (Alcon Laboratories, Inc., priority 2000, dated 2001).
Like-named read-outs stand apart in the source and are kept apart here.

How the values were obtained:
ocular blood flow [1] = conditions: cited from earlier work
[2] = Distribution coefficient (octanol/water determined at pH 7.4); format: physicochemical
ocular blood flow [3] = conditions: cited from earlier work; remark: listed apart in the source
[4] = system: blood flow to the iris, ciliary processes, optic nerve, or retina; conditions: topical, rabbits; Sugrue et al. 1996; cited from earlier work
ocular tissues = experiment: Ocular blood flow by colored microsphere technique in anesthetized rabbits, intravenous; format: in vivo, New Zealand albino rabbits; conditions: for increase in total ocular blood flow, hypofused eyes: unilateral carotid occlusion
Excerpt: (§1) In this experiment it was also possible to compare blood flows of the normal eye to the contralateral eye that was mildly hypofused due to unilateral carotid occlusion.

intraocular pressure = conditions: ocular hypertension and glaucoma; cited from earlier work
[5] = system: intraocular pressure (IOP); experiment: Intraocular pressure, one-week multidose topical crossover study in rabbits; format: in vivo, Dutch-Belted rabbits; conditions: 2% suspension topical, one drop twice daily, 90 minutes after last dose, p<0.05 versus vehicle, p<0.001 versus baseline
Method: (§2) Treatment measurements were made 90 minutes after the last dose on day eight. Optic nerve head blood flow and measured systemic variables were not changed by vehicle treatment. […] It is established that the vasculature of the ONH responds to increases in arterial O2 or CO2 tension by a reduction or an enhancement of ONH blood flow respectively.

retina [6] = experiment: Tissue distribution after single topical ocular dose of 14C-brinzolamide, NZW rabbits; format: in vivo, New Zealand Albino (NZW) rabbits
[7] = Acid-base balance and arterial gases, one-week multidose topical crossover study in rabbits; format: in vivo, Dutch-Belted rabbits; conditions: 2% suspension topical, one drop twice daily
Method: as §2

optic nerve head (ONH) [8] = experiment: Optic nerve head blood flow by LDF, one-week multidose topical crossover study in rabbits; format: in vivo, Dutch-Belted rabbits; conditions: 2% suspension topical, one drop twice daily, 90 minutes after last dose, mean±SEM, p<0.05
Method: as §2

optic nerve head = experiment: Optic nerve head blood flow by LDF in anesthetized rabbits, intravenous; format: in vivo, New Zealand albino rabbits; conditions: intravenous 0.5, 2.5, and 5 mg/kg
Excerpt: as §1

retina [9] = experiment: Tissue distribution after single topical ocular dose of 14C-brinzolamide, Dutch belted rabbits; format: in vivo
optic nerve head (ONH) [10] = experiment: Optic nerve head blood flow by laser Doppler flowmetry in cats; format: in vivo, cat
[11] = in words; cited from earlier work
[12] = system: ocular and cerebral blood flow; conditions: oral and i.v. administration, relatively high dosages; cited from earlier work
[13] = system: scleral vessels; vessels in the back of the eye; conditions: topical ocular administration; cited from earlier work
[14] = topical, some patients; cited from earlier work
IOP = conditions: rabbits, monkeys and man; cited from earlier work
α2 = conditions: cited from earlier work
[15] = octanol/water, pH 7.4; in words; cited from earlier work
[16] = read-out: distribution coefficient (converted)
[17] = retina, single topical ocular dose of 1% 14C-brinzolamide

For `CCN[C@H]1C[C@H](C)S(=O)(=O)c2sc(S(N)(=O)=O)cc21` [dorzolamide], which “blood velocity in the retina and superficial optic nerve head” value (ocular blood flow [1]; Harris et al. 1996) is on record?
Its value is “accelerated blood velocity in the retina and superficial optic nerve head”.

And the “choroidal pressure flow relationships” value (ocular blood flow [1]; Shipman et al. 1997)?
The value was “did not alter the choroidal pressure flow relationships”.

What about the peripapillary blood flow (ocular blood flow [1]; topical, Koller et al. 1997) of the same molecule?
The peripapillary blood flow was “did not change peripapillary blood flow”.

What about the ocular blood flow (ocular blood flow [1]; topical, Sponsel 1996, 1997) of the same molecule?
Its ocular blood flow is “positive effect on ocular blood flow”.

What about the logD [2, 16] of the same molecule?
The logD was 0.236.

What about the artereovenous passage time (ocular blood flow [3]; healthy subjects, WO 96/37203) of the same molecule?
The artereovenous passage time was “accelerated artereovenous passage time”.

And the “optic nerve head velocity” value (ocular blood flow [3]; healthy subjects, WO 96/37203)?
The value was “increase in optic nerve head velocity”.

What about the “retinal vein blood flow” value (ocular blood flow [3]; normal volunteers, Gruenwald et al. 1997) of the same molecule?
The value was “no effect on retinal vein blood flow”.

What about the “optic nerve head blood flow” value (ocular blood flow [3]; topical, healthy subjects, Pillunat et al. 1997) of the same molecule?
The value was “did not alter optic nerve head blood flow”.

What about the “blood flow to the iris, ciliary processes, optic nerve, or retina” value [4] of the same molecule?
Its value is “does not decrease blood flow”.

Which “regional blood flows to the hypofused eye” value (ocular tissues; highest intravenous dose) does the source give for `CCN[C@H]1CN(CCCOC)S(=O)(=O)c2sc(S(N)(=O)=O)cc21` [brinzolamide, R-(+)-4ethylamino-3,4-dihydro-2-(3-methoxy)propyl-2H thieno[3,2,e]1,2thiazene-6sulfonamide-1,1dioxide] here?
The value was “returned regional blood flows to the hypofused eye to baseline levels found in the normal eye”.

What about the “tissues with greatest percentage blood flow increase, hypofused eye” value (ocular tissues; intravenous) of the same molecule?
The value was “greatest to iridial, ciliary, and choroidal tissues, respectively”.

What about the “increase in total ocular blood flow, normal eyes” value (from here on “increase … normal eyes”) (ocular tissues; intravenous 0.5 mg/kg) of the same molecule?
The value was 29%.

What about the “increase in total ocular blood flow, hypofused eyes” value (shortened to “increase … hypofused eyes”) (ocular tissues; intravenous 0.5 mg/kg) of the same molecule?
The value was 21%.

And the “increase … normal eyes” value (ocular tissues; intravenous 2.5 mg/kg)?
Its value is 68%.

What about the “increase … hypofused eyes” value (ocular tissues; intravenous 2.5 mg/kg) of the same molecule?
Its value is 64%.

What about the “increase … normal eyes” value (ocular tissues; intravenous 5 mg/kg) of the same molecule?
Its value is 90%.

What about the “increase … hypofused eyes” value (ocular tissues; intravenous 5 mg/kg) of the same molecule?
The value was 90%.

What about the “total ocular blood flow” value (ocular tissues; intravenous 0.5, 2.5, and 5 mg/kg) of the same molecule?
Its value is “significant dose-related increase”.

What about the “lowering of elevated intraocular pressure” value (intraocular pressure) of the same molecule?
The value was “effective in lowering the elevated intraocular pressure”.

What about the “decrease of IOP” value [5] of the same molecule?
Its value is 16.8±2.2%.

And the Cmax (retina [6]; [17])?
Its Cmax is 0.330 ?g equivalents/g.

And the “Tmax in the retina” value (retina [6]; single topical ocular dose of 1% 14C-brinzolamide)?
Its value is 20 days.

What about the “redistribution into the retina” value (retina [6]; topical ocular) of the same molecule?
The value was “slowly redistribute into the retina”.

And the “disturbance of acid-base balance” value [7]?
The value was “Minimal disturbance of acid-base balance”.

What about the logD [2, 16] of the same molecule?
Its logD is 0.817.

What about the “increase in ONH blood flow” value (optic nerve head (ONH) [8]) of the same molecule?
Its value is 11.2±1.6%.

What about the “optic nerve head blood flow” value (optic nerve head) of the same molecule?
Its value is “increased above baseline”.

And the Cmax (retina [9]; [17])?
The Cmax was 0.338 ?g equivalents/g.

What about the “redistribution into the retina” value (retina [9]; topical ocular) of the same molecule?
The value was “slowly redistribute into the retina”.

What about the “increase in ONH blood flow over control group” value (optic nerve head (ONH) [10]; 1% topical, one drop twice a day, one week, spontaneously breathing cats, average of two measurements) of the same molecule?
The value was 21.8%.

And the “increase in ONH blood flow” value (optic nerve head (ONH) [10]; 60 minutes following single topical dose, anesthetized ventilated cats)?
Its value is 16.5%±8%.

And the “increase in ONH blood flow” value (optic nerve head (ONH) [10]; intravenous, p≤0.05)?
The value was 46±17%.

Which “half-life in whole blood” value [11] does the source give for `CC(=O)Nc1nnc(S(N)(=O)=O)s1` [acetazolamide] here?
Its value is “relatively short half-lives in whole blood”.

And the “ocular and cerebral blood flow” value [12]?
The value was “increase both ocular and cerebral blood flow”.

With `Brc1c(NC2=NCCN2)ccc2nccnc12` [brimonidine, (5-bromo-6-2-imidzolidisnylideneamino) quinozoline L-tartrate] as the molecule, how does the “vasoconstriction in scleral vessels” value [13] read?
The value was “causes vasoconstriction in scieral vessels”.

And the “vasoconstriction in vessels in the back of the eye” value [13]?
Its value is “does not appear to be a vasoconstrictor in vessels in the back of the eye”.

What about the side effects [14] of the same molecule?
The side effects was “sedation and ocular hyperemia in an allergic like reaction in some patients”.

And the “lowering of IOP” value (IOP)?
Its value is “effectively lower IOP in rabbits, monkeys and man”.

What about the “α2 agonist activity and selectivity” value (α2) of the same molecule?
Its value is “potent and relatively selective α2 agonist”.

Which “half-life in whole blood” value [11] does the source give for `CC(=O)/N=c1/sc(S(N)(=O)=O)nn1C` [methazolamide] here?
The value was “relatively short half-lives in whole blood”.

And the logD [2]?
Its logD is -0.194.

And the distribution coefficient [15]?
The distribution coefficient was “low distribution coefficients”.

What about the “ocular and cerebral blood flow” value [12] of the same molecule?
Its value is “increase both ocular and cerebral blood flow”.
